ChEMBL document CHEMBL3352489, “6-Hydroxyquinolinium salts differing in the length of alkyl side-chain: synthesis and antimicrobial activity” (Bioorg Med Chem Lett, 2014)

Key:
Candida tropicalis [1] = assay: microbe, parasite or virus in culture; type: functional; settings: Candida tropicalis, 156, 24 h
Description: Antifungal activity against Candida tropicalis 156 after 24 hrs by modified standard CSLI M27-A2 method

Aspergillus fumigatus [2] = assay: microbe, parasite or virus in culture; type: functional; settings: Aspergillus fumigatus, 231, 24 h
Description: Antifungal activity against Aspergillus fumigatus 231 after 24 hrs by modified standard CSLI M27-A2 method

Enterococcus sp. [3] = assay: microbe, parasite or virus in culture; type: functional; settings: J 14365/08, 24 h
Description: Antibacterial activity against Enterococcus sp. J 14365/08 after 24 hrs by microdilution broth method

Lichtheimia corymbifera [4] = assay: microbe, parasite or virus in culture; type: functional; settings: Lichtheimia corymbifera, 272, 48 h
Description: Antifungal activity against Absidia corymbifera 272 after 48 hrs by modified standard CSLI M27-A2 method

Staphylococcus aureus [5] = assay: Bactericidal activity against Staphylococcus aureus CCM 4516/08 after 48 hrs by microdilution broth method; type: functional; settings: CCM 4516/08, 48 h, read-out: MBC>99.9
Candida tropicalis [6] = assay: Fungicidal activity against Candida tropicalis 156 after 48 hrs by modified standard CSLI M27-A2 method; type: functional; settings: Candida tropicalis, 156, 48 h
Lichtheimia corymbifera [7] = assay: microbe, parasite or virus in culture; type: functional; settings: Lichtheimia corymbifera, 272, 24 h
Description: Antifungal activity against Absidia corymbifera 272 after 24 hrs by modified standard CSLI M27-A2 method

Staphylococcus aureus [8] = assay: Bactericidal activity against Staphylococcus aureus H 5996/08 after 48 hrs by microdilution broth method; type: functional; settings: H 5996/08, 48 h, read-out: MBC>99.9
[9] = tested on: Trichophyton mentagrophytes; assay: microbe, parasite or virus in culture; type: functional; settings: Trichophyton mentagrophytes, 445, 120 h
Description: Antifungal activity against Trichophyton mentagrophytes 445 after 120 hrs by modified standard CSLI M27-A2 method

Pichia kudriavzevii [10] = assay: Antifungal activity against Candida krusei E28 after 48 hrs by modified standard CSLI M27-A2 method; type: functional; settings: E28, 48 h
Lichtheimia corymbifera [11] = assay: Fungicidal activity against Absidia corymbifera 272 after 48 hrs by modified standard CSLI M27-A2 method; type: functional; settings: Lichtheimia corymbifera, 272, 48 h
Nakaseomyces glabratus [12] = assay: Fungicidal activity against Candida glabrata 20/I after 48 hrs by modified standard CSLI M27-A2 method; type: functional
Trichosporon asahii [13] = assay: microbe, parasite or virus in culture; type: functional; settings: Trichosporon asahii, 1188, 24 h
Description: Antifungal activity against Trichosporon asahii 1188 after 24 hrs by modified standard CSLI M27-A2 method

[14] = Cytotoxicity against CHOK1 cells after 24 hrs by MTT assay; type: ADME, cell-based; settings: Cricetulus griseus, CHO-K1, 24 h
Staphylococcus aureus [15] = assay: microbe, parasite or virus in culture; type: functional; settings: CCM 4516/08, 24 h
Description: Antibacterial activity against Staphylococcus aureus CCM 4516/08 after 24 hrs by microdilution broth method

Pseudomonas aeruginosa [16] = assay: microbe, parasite or virus in culture; type: functional; settings: CCM 1961, 120 h
Description: Antibacterial activity against Pseudomonas aeruginosa CCM 1961 after 120 hrs by microdilution broth method

Klebsiella pneumoniae [17] = assay: microbe, parasite or virus in culture; type: functional; settings: D 11750/08, 48 h
Description: Antibacterial activity against Klebsiella pneumoniae D 11750/08 after 48 hrs by microdilution broth method

[18] = tested on: Trichophyton mentagrophytes; assay: microbe, parasite or virus in culture; type: functional; settings: Trichophyton mentagrophytes, 445, 72 h
Description: Antifungal activity against Trichophyton mentagrophytes 445 after 72 hrs by modified standard CSLI M27-A2 method

Escherichia coli [19] = assay: Bactericidal activity against Escherichia coli CCM 4517 after 48 hrs by microdilution broth method; type: functional; settings: CCM 4517, 48 h, read-out: MBC>99.9
Candida albicans [20] = assay: microbe, parasite or virus in culture; type: functional; settings: ATCC 44859, 24 h
Description: Antifungal activity against Candida albicans ATCC 44859 after 24 hrs by modified standard CSLI M27-A2 method

Enterococcus sp. [21] = assay: microbe, parasite or virus in culture; type: functional; settings: J 14365/08, 48 h
Description: Antibacterial activity against Enterococcus sp. J 14365/08 after 48 hrs by microdilution broth method

Nakaseomyces glabratus [22] = assay: Antifungal activity against Candida glabrata 20/I after 24 hrs by modified standard CSLI M27-A2 method; type: functional
Escherichia coli [23] = assay: microbe, parasite or virus in culture; type: functional; settings: CCM 4517, 24 h
Description: Antibacterial activity against Escherichia coli CCM 4517 after 24 hrs by microdilution broth method

Klebsiella pneumoniae [24] = assay: Bactericidal activity against Klebsiella pneumoniae J 14368/08 after 48 hrs by microdilution broth method; type: functional; settings: J 14368/08, 48 h, read-out: MBC>99.9
Trichosporon asahii [25] = assay: microbe, parasite or virus in culture; type: functional; settings: Trichosporon asahii, 1188, 48 h
Description: Antifungal activity against Trichosporon asahii 1188 after 48 hrs by modified standard CSLI M27-A2 method

Pseudomonas aeruginosa [26] = assay: microbe, parasite or virus in culture; type: functional; settings: CCM 1961, 72 h
Description: Antibacterial activity against Pseudomonas aeruginosa CCM 1961 after 72 hrs by microdilution broth method

[27] = tested on: Staphylococcus epidermidis; assay: microbe, parasite or virus in culture; type: functional; settings: H 6966/08, 24 h
Description: Antibacterial activity against Staphylococcus epidermidis H 6966/08 after 24 hrs by microdilution broth method

Aspergillus fumigatus [28] = assay: microbe, parasite or virus in culture; type: functional; settings: Aspergillus fumigatus, 231, 48 h
Description: Antifungal activity against Aspergillus fumigatus 231 after 48 hrs by modified standard CSLI M27-A2 method

Klebsiella pneumoniae [29] = assay: microbe, parasite or virus in culture; type: functional; settings: J 14368/08, 48 h
Description: Antibacterial activity against Klebsiella pneumoniae J 14368/08 after 48 hrs by microdilution broth method

Klebsiella pneumoniae [30] = assay: Bactericidal activity against Klebsiella pneumoniae D 11750/08 after 24 hrs by microdilution broth method; type: functional; settings: D 11750/08, 24 h, read-out: MBC>99.9
Trichosporon asahii [31] = assay: Fungicidal activity against Trichosporon asahii 1188 after 48 hrs by modified standard CSLI M27-A2 method; type: functional; settings: Trichosporon asahii, 1188, 48 h
Escherichia coli [32] = assay: microbe, parasite or virus in culture; type: functional; settings: CCM 4517, 48 h
Description: Antibacterial activity against Escherichia coli CCM 4517 after 48 hrs by microdilution broth method

Candida albicans [33] = assay: microbe, parasite or virus in culture; type: functional; settings: ATCC 44859, 48 h
Description: Antifungal activity against Candida albicans ATCC 44859 after 48 hrs by modified standard CSLI M27-A2 method

Pichia kudriavzevii [34] = assay: Fungicidal activity against Candida krusei E28 after 48 hrs by modified standard CSLI M27-A2 method; type: functional; settings: E28, 48 h
Aspergillus fumigatus [35] = assay: Fungicidal activity against Aspergillus fumigatus 231 after 48 hrs by modified standard CSLI M27-A2 method; type: functional; settings: Aspergillus fumigatus, 231, 48 h
Candida albicans [36] = assay: Fungicidal activity against Candida albicans ATCC 44859 after 48 hrs by modified standard CSLI M27-A2 method; type: functional; settings: ATCC 44859, 48 h
[37] = tested on: Staphylococcus epidermidis; assay: Bactericidal activity against Staphylococcus epidermidis H 6966/08 after 48 hrs by microdilution broth method; type: functional; settings: H 6966/08, 48 h, read-out: MBC>99.9
Staphylococcus aureus [38] = assay: microbe, parasite or virus in culture; type: functional; settings: H 5996/08, 24 h
Description: Antibacterial activity against Staphylococcus aureus H 5996/08 after 24 hrs by microdilution broth method

Candida tropicalis [39] = assay: microbe, parasite or virus in culture; type: functional; settings: Candida tropicalis, 156, 48 h
Description: Antifungal activity against Candida tropicalis 156 after 48 hrs by modified standard CSLI M27-A2 method

Nakaseomyces glabratus [40] = assay: Antifungal activity against Candida glabrata 20/I after 48 hrs by modified standard CSLI M27-A2 method; type: functional
Pichia kudriavzevii [41] = assay: Antifungal activity against Candida krusei E28 after 24 hrs by modified standard CSLI M27-A2 method; type: functional; settings: E28, 24 h
Staphylococcus aureus [42] = assay: microbe, parasite or virus in culture; type: functional; settings: H 5996/08, 48 h
Description: Antibacterial activity against Staphylococcus aureus H 5996/08 after 48 hrs by microdilution broth method

Pseudomonas aeruginosa [43] = assay: Bactericidal activity against Pseudomonas aeruginosa CCM 1961 after 120 hrs by microdilution broth method; type: functional; settings: CCM 1961, 120 h, read-out: MBC>99.9
[44] = tested on: Staphylococcus epidermidis; assay: microbe, parasite or virus in culture; type: functional; settings: H 6966/08, 48 h
Description: Antibacterial activity against Staphylococcus epidermidis H 6966/08 after 48 hrs by microdilution broth method

Klebsiella pneumoniae [45] = assay: microbe, parasite or virus in culture; type: functional; settings: D 11750/08, 24 h
Description: Antibacterial activity against Klebsiella pneumoniae D 11750/08 after 24 hrs by microdilution broth method

[46] = tested on: Trichophyton mentagrophytes; assay: Fungicidal activity against Trichophyton mentagrophytes 445 after 120 hrs by modified standard CSLI M27-A2 method; type: functional; settings: Trichophyton mentagrophytes, 445, 120 h
Enterococcus sp. [47] = assay: Bactericidal activity against Enterococcus sp. J 14365/08 after 48 hrs by microdilution broth method; type: functional; settings: J 14365/08, 48 h, read-out: MBC>99.9
Staphylococcus aureus [48] = assay: microbe, parasite or virus in culture; type: functional; settings: CCM 4516/08, 48 h
Description: Antibacterial activity against Staphylococcus aureus CCM 4516/08 after 48 hrs by microdilution broth method

Klebsiella pneumoniae [49] = assay: microbe, parasite or virus in culture; type: functional; settings: J 14368/08, 24 h
Description: Antibacterial activity against Klebsiella pneumoniae J 14368/08 after 24 hrs by microdilution broth method

CCCCCCCCCCCCCCCC[N+](C)(C)Cc1ccccc1
MIC (Candida tropicalis [1]): 3.91 µM | MIC (Aspergillus fumigatus [2]): 7.81 µM | MIC95 (Enterococcus sp. [3]): 1.95 µM | MIC (Lichtheimia corymbifera [4]): 7.81 µM | MBC (Staphylococcus aureus [5]): 3.91 µM | MFC (Candida tropicalis [6]): 7.81 µM | MIC (Lichtheimia corymbifera [7]): 7.81 µM | MBC (Staphylococcus aureus [8]): 3.91 µM | MIC [9]: 7.81 µM | MIC (Pichia kudriavzevii [10]): 1.95 µM | MFC (Lichtheimia corymbifera [11]): 62.5 µM | MFC (Nakaseomyces glabratus [12]): 62.5 µM | MIC (Trichosporon asahii [13]): 7.81 µM | IC50 [14]: 15 µM | MIC95 (Staphylococcus aureus [15]): 0.98 µM | MIC95 (Pseudomonas aeruginosa [16]): 31.2 µM | MIC95 (Klebsiella pneumoniae [17]): 7.81 µM | MIC [18]: 7.81 µM | MBC (Escherichia coli [19]): 7.81 µM | MIC (Candida albicans [20]): 3.91 µM | MIC95 (Enterococcus sp. [21]): 1.95 µM | MIC (Nakaseomyces glabratus [22]): 1.95 µM | MIC95 (Escherichia coli [23]): 7.81 µM | MBC (Klebsiella pneumoniae [24]): 7.81 µM | MIC (Trichosporon asahii [25]): 7.81 µM | MIC95 (Pseudomonas aeruginosa [26]): 15.6 µM | MIC95 [27]: 0.49 µM | MIC (Aspergillus fumigatus [28]): 7.81 µM | MIC95 (Klebsiella pneumoniae [29]): 7.81 µM | MBC (Klebsiella pneumoniae [30]): 7.81 µM | MFC (Trichosporon asahii [31]): 62.5 µM | MIC95 (Escherichia coli [32]): 7.81 µM | MIC (Candida albicans [33]): 7.81 µM | MFC (Pichia kudriavzevii [34]): 1.95 µM | MFC (Aspergillus fumigatus [35]): 62.5 µM | MFC (Candida albicans [36]): 7.81 µM | MBC [37]: 3.91 µM | MIC95 (Staphylococcus aureus [38]): 1.95 µM | MIC (Candida tropicalis [39]): 7.81 µM | MIC (Nakaseomyces glabratus [40]): 3.91 µM | MIC (Pichia kudriavzevii [41]): 1.95 µM | MIC95 (Staphylococcus aureus [42]): 1.95 µM | MBC (Pseudomonas aeruginosa [43]): 125 µM | MIC95 [44]: 0.49 µM | MIC95 (Klebsiella pneumoniae [45]): 7.81 µM | MFC [46]: 62.5 µM | MBC (Enterococcus sp. [47]): 3.91 µM | MIC95 (Staphylococcus aureus [48]): 0.98 µM | MIC95 (Klebsiella pneumoniae [49]): 7.81 µM
